The values that follow come from patent US20230140290A1, “SALICYLAMIDE DERIVATIVES AND RELATED METHODS OF MAKING” (THE BOARD OF REGENTS OF THE UNIVERSITY OF TEXAS SY, priority 2020, published 2023).

Broadly, the MTD is the highest dose tested that stayed within the study's limit of toxicity. A high value points to a wide tolerated range. What is called IC50 is the concentration that gives 50% inhibition.

For data set [1], the system named is A549 cells. Briefly: Cytotoxicity assay (AlamarBlue). To be noted: read-out: CC50 (μM), cytotoxic concentration 50%; A549 cell line, 48 h. The method, then:
(§1) Cytotoxicity Assay. The cytotoxicity of the compounds was analyzed by commercial kit AlamarBlue® (Invitrogen, Ref. DAL1025). A549 cells at a density of 5×10^3 cells per well in 96-well plates were seeded. […] Cells were then incubated at 37° C. for 48 h following the kit protocol. The cytotoxic concentration 50 (CC50) value was obtained using the statistical package GraphPad Prism. This assay was performed in duplicate.
A general note: The colour change of resazurin is a common sign of viable cells or microbes.

Data set [2] has as its system HAdV5-GFP. Briefly: Time of addition assay. To be noted: for inhibition at 0.78 µM: FIG. 10. In kind it is cell-based, HAdV-5. As for the experimental part:
Time of Addition Curve Study. […] Parallel samples of HAdV-5 were incubated with or without the selected derivatives on ice for 1 h. […] The derivatives were added at the indicated time points before or during this incubation. After a total of 2 h at 37° C., cells were incubated for an additional 48 h at 37° C. and 5% CO2 before being analyzed for GFP expression using the Typhoon 9410 imager (GE Healthcare Life Sciences) as above.
Time of Addition Assay. […] Parallel samples of HAdV-5 were incubated with or without the selected derivatives on ice for 1 h. […] The derivatives were added at the indicated time points before or during this incubation. After a total of 2 h at 37° C., cells were incubated for an additional 48 h at 37° C. and 5% CO2 before being analyzed for GFP expression using the Typhoon 9410 imager (GE Healthcare Life Sciences) as above.
Time of Addition Assay. […] Parallel samples of HAdV-5 were incubated with or without the selected compounds on ice for 1 h. […] Compounds 153 and 161 were added at the indicated time points before or during this incubation. After a total of 2 h at 37° C., cells were incubated for an additional 48 h at 37° C. and 5% CO2 before being analyzed for GFP expression using the Typhoon 9410 imager (GE Healthcare Life Sciences) as above.

Data set [3] in a line: Cytotoxicity assay (AlamarBlue). The conditions noted are these: human, A549 cells. As for the experimental part: as §1
Data set [4] can be described thus: Maximum tolerated dose (MTD). To be noted: female, Syrian, hamster, in vivo, ip. As for the experimental part: Maximum tolerated dose (MTD). […] Before dosing, compounds were diluted in 10% DMSO, 10% Cremophor EL and 80% sodium chloride physiological solution. […] At day 14 animals were sacrificed with a lethal dose of thiopental. All inoculations were done via intraperitoneal.

Data set [5] relates to HAdV. In words: Combination study (Chou-Talalay, CalcuSyn) in plaque assay. It counts as cell-based. From the text:
Synergistic Activity of Selected Derivatives. […] To assess this hypothesis, we conducted a combination study based on the Chou-Talalay method for drug combination using the CalcuSyn software (Chou, and Talalay, Adv. Enzyme Regul. 1984, 22, 27-55; Matthews et al., PLoS One. 2017, 12, e0173303) using those compounds with lower IC50 in the plaque assay and higher SI, compound 87 from this work and compounds 17 (JMX0312), 58 (JMX0281) from our first library of derivatives. The constant ratio for each combination was selected based on the IC50 values for each drug.
Synergistic Activity of Selected Compounds. […] To evaluate, a combination study was conducted based on the Chou-Talalay method for drug combination using the CalcuSyn software. The constant ration for each combination was selected based on the IC50 values for each drug.

The test system of data set [6] is HCMV. In words: HCMV DNA quantification by real-time PCR. It counts as cell-based, human cytomegalovirus. To be noted: HFF cells, 72 h, 10-fold plaque IC50 (niclosamide 5 μM). As for the experimental part:
HCMV DNA Quantification by Real-Time PCR. […] Then, cells were incubated for 72 h at 37° C. and 5% CO2 and HCMV DNA was purified from the cell lysate using the QIAamp DNA Mini Kit (Qiagen, Valencia, Calif.) following the manufacturer's instructions. Real-time PCR primers, mixtures and protocols were the same as previously reported (Sanchez-Cespedes et al., J. Med. Chem. 2016, 59, 5432-5448).
Background: Real-time PCR tracks product formation cycle by cycle.

Data set [7] has as its system HAdV5. In words: HAdV-mediated endosome disruption (α-sarcin co-delivery assay). It counts as cell-based, HAdV-5. To be noted: FIG. 11; virus below 12 ng; similar to ts1 mutant.
In data set [8] the test system is HAdV-5. In words: Thermostability assay (HAdV capsid uncoating). It counts as cell-based. The conditions noted are these: FIG. 12; 50 μM, 24 h post-infection. From the text: The studies described above delineate the step of infection that is targeted by 161; however, the precise molecular mechanism involved in its antiviral activity remained to be established. One alternative mode of action was that 161 could block HAdV-mediated lysis of the endosome by stabilizing the virus capsid, thereby preventing uncoating. Indeed, human defensins and neutralizing antibodies have been previously shown to act through this mechanism (Smith et al., Cell Host Microbe, 2008, 3, 11-19). To determine whether 161 impacts HAdV uncoating, we used a thermostability assay that mimics virus disassembly in the endosome, which was previously described by Wiethoff et al., (Wiethoff et al., J. Virol. 2005, 79, 1992-2000), with a few modifications. In this assay, temperatures above 48° C. promote selective removal of the virus vertex region. HAdV-5 was incubated with or without 50 μM concentrations of 161 at temperatures from 37° C. to 52° C. and then added to cells to evaluate the viability of the viruses. […] Upon heating HAdV-5 to 48° C. or above, in those non-treated with compound 161, there was no GFP expression 24 h post-infection.

The mark [9] stands for this setting: 0 h, FIG. 2, read-out: inhibition of HAdV infection after addition at the moment of the infection (0 min).
Setting [10] is: combination 17 & 58 (1:2.5), read-out: IC50 combination.
The mark [11] stands for this setting: combination 17 & 87 (1:1.5), read-out: IC50 combination.
Setting [12] is: derivative alone, read-out: IC50 Single.
[13] abbreviates: combination 87 & 58 (1:1.7), read-out: IC50 combination.

Where two headings read alike, the source gives them in different places.

Consider `O=C(Nc1ccc([N+](=O)[O-])cc1F)c1cc(Cl)ccc1O` [Compound 11, 5-Chloro-N-(2-fluoro-4-nitrophenyl)-2-hydroxybenzamide], for which the CC50 in data set [1] came to 10.9 µM. In data set [2] (FIG. 2, 5 μM), the “loss of inhibition when added between 20 and 40 p.i.” value amounted to 34%.

In the case of `O=C(Nc1cc(F)cc(C(F)(F)F)c1)c1cc(Cl)ccc1O` [Compound 17, 5-Chloro-N-(3-fluoro-5-(trifluoromethyl)phenyl)-2-hydroxybenzamide], in data set [3], the CC50 at 48 h stood at 120 ± 33.6 µM. Moreover, in data set [4], the MTD at 14 days was 12.5 mg/kg. In addition, the inhibition at 10 µM in data set [2] (setting [9]) is less than 50%. Besides, the IC50 in data set [5] (setting [10]) is 0.1 ± 0.01 µM; in data set [5] (setting [11]) it was 0.09 µM; in data set [5] (setting [12]) it was 0.18 ± 0.01 µM.

Turning to `CC(C)[C@H](NC(=O)c1cc(Cl)ccc1O)C(=O)Nc1ccc([N+](=O)[O-])cc1Cl` [Compound 58, (S)-5-Chloro-N-(1-((2-chloro-4-nitrophenyl)amino)-3-methyl-1-oxobutan-2-yl)-2-hydroxybenzamide], the CC50 at 48 h in data set [3] was found to be 200 µM. In data set [4], the MTD at 14 days was 50 mg/kg. Moreover, the inhibition at 10 µM in data set [2] (setting [9]) was less than 50%. In addition, the IC50 was 0.25 ± 0.02 µM in data set [5] (setting [10]), 0.5 ± 0.04 µM in data set [5] (setting [13]) and 0.45 ± 0.06 µM in data set [5] (setting [12]).

On to `O=C(N[C@H](Cc1ccccc1)C(=O)Nc1ccc([N+](=O)[O-])cc1Cl)c1cc(Cl)ccc1O` [Compound 60, (R)-5-Chloro-N-(1-((2-chloro-4-nitrophenyl)amino)-1-oxo-3-phenylpropan-2-yl)-2-hydroxybenzamide], for which the CC50 in data set [1] turned out to be 77.9 µM. For the same compound, in data set [2] (20 min, read-out: inhibition of HAdV infection when added after 20 min p.i., FIG. 2), the inhibition at 10 µM is less than 50%.

Consider `CC1(Nc2ccc(NC(=O)c3cc(Cl)ccc3O)c(Cl)c2)CCCC1` [Compound 87, 5-Chloro-N-(2-chloro-4-((1-methylcyclopentyl)amino)phenyl)-2-hydroxybenzamide], for which, in data set [1], the CC50 was 157 µM. The compound also displayed an MTD at 14 days in data set [4] of 150 mg/kg. The IC50 in data set [5] (setting [11]) was 0.14 µM; in data set [5] (setting [13]) it was 0.3 ± 0.02 µM; in data set [5] (setting [12]), 0.27 ± 0.16 µM. Besides, the “decrease of total HCMV DNA compared to the DMSO control” value in data set [6] is “no significant inhibition”.

Turning to `O=C(NCC1CCCCC1)c1cc(Cl)ccc1O` [Compound 161, 5-Chloro-N-(cyclohexylmethyl)-2-hydroxybenzamide], the HAdV-mediated endosome lysis entry in data set [7] is “prevented HAdV-mediated endosome lysis”. Moreover, in data set [8], the “GFP expression of viruses heated to 48° C.” value is “significant levels of GFP expression” and the “GFP expression of viruses heated to 52° C.” value is given as “some residual expression”. Further, the inhibition at 0.78 µM in data set [2] (0 h, read-out: inhibitory activity at 0 min post-infection) is 95.3%. In data set [2] (20 min, read-out: inhibitory activity at 20 min p.i.), the inhibition at 0.78 µM turned out to be 30.7%.
